Data reported in ChEMBL document CHEMBL1128612, “Synthesis and biological activity of enantiomers of a conformationally restricted muscarone analog” (Bioorg Med Chem Lett, 1995).

biological target: T1, Muscarinic acetylcholine receptor M1 (Rattus norvegicus, UniProt P08482)
T1 sequence (P08482 whole entry): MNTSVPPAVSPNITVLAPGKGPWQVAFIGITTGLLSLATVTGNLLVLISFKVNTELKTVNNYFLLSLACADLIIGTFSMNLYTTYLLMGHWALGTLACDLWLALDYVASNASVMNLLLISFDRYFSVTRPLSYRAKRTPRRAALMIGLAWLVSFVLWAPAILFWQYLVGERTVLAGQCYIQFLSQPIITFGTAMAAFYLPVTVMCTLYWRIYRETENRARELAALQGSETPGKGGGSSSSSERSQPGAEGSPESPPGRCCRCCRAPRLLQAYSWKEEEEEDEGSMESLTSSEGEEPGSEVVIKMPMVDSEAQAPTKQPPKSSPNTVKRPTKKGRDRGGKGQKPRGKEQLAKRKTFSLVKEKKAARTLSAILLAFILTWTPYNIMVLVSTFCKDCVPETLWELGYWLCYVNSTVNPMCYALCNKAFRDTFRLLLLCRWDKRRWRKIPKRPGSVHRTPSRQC
Description: Compound was evaluated for its affinity towards Muscarinic acetylcholine receptor M1, using [3H]- pirenzepine, a radioligand displacement assay in rat hippocampal membranes

SMILES	Ki [µM]
C[C@H]1OC2(CCN(C)CC2)CC1=O	26
CC1OC2(CCN(C)CC2)CC1=O (centres undefined)	3.8
C[C@@H]1OC2(CCN(C)CC2)CC1=O	4.1

biological target: T2, Muscarinic acetylcholine receptor M2 (Rattus norvegicus, UniProt P10980)
T2 sequence (P10980 whole entry): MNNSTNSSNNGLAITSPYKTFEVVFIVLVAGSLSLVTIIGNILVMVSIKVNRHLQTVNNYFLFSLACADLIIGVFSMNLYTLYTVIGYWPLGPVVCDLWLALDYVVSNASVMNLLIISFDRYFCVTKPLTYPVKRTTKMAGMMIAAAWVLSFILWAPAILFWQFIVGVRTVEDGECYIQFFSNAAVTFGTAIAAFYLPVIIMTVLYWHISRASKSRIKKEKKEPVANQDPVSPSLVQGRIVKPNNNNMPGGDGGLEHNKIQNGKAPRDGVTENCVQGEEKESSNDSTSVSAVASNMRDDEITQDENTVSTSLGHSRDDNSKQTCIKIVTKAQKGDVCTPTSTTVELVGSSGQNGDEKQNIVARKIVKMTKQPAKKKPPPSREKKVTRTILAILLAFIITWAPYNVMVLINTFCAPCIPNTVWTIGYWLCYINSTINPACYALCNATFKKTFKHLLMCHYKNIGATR
Description: Compound was evaluated for its affinity towards Muscarinic acetylcholine receptor M2, using [3H]- N-methyl-scopolamine, a radioligand displacement assay in rat heart membranes

SMILES	Ki [µM]
C[C@H]1OC2(CCN(C)CC2)CC1=O	37
CC1OC2(CCN(C)CC2)CC1=O (centres undefined)	5.3
C[C@@H]1OC2(CCN(C)CC2)CC1=O	2.5

biological target: Muscarinic acetylcholine receptor M3 (Cavia porcellus) (UniProt Q8VH26)
Sequence (Q8VH26 1-587): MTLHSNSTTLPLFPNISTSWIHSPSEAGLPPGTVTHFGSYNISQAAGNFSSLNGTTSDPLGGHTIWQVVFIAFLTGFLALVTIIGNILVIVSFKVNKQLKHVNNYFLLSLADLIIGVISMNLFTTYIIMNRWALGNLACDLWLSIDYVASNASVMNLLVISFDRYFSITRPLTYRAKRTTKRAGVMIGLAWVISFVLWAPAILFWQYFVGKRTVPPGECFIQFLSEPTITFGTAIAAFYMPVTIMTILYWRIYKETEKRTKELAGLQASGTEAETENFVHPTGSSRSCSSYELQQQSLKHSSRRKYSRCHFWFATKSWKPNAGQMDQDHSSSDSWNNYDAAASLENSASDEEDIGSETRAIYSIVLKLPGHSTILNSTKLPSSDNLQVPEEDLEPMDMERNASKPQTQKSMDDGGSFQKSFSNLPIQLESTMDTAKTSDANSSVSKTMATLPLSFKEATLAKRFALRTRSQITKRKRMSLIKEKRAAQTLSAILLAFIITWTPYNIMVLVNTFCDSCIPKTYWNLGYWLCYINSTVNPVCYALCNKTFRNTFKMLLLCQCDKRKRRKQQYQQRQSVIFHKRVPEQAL
Description: Compound was evaluated for dissociation constant (KA), determined from potency against Muscarinic acetylcholine receptor M3 in an isolated tissue assay (guinea pig trachea)

SMILES	KA [µM]
C[C@H]1OC2(CCN(C)CC2)CC1=O	4.5
CC1OC2(CCN(C)CC2)CC1=O (centres undefined)	0.7
C[C@@H]1OC2(CCN(C)CC2)CC1=O	0.28
